# How the values were obtained:
# [1] = system: human fibroblast cells; experiment: cell tolerance / lethality in fibroblast cells; format: cell-based
# [2] = molecular target: human GALK (Homo sapiens, UniProt P51570); experiment: in vitro GALK; format: biochemical; details: for inhibitory activity against GALK (in words): in vitro GALK inhibitory assays, tested up to 50μM
# [3] = system: GALK in patient fibroblast cells; experiment: intracellular inhibition of GALK measured by reduction of gal-1P accumulation; format: cell-based, human; details: 50μM
# Chain of human GALK (P51570 whole entry): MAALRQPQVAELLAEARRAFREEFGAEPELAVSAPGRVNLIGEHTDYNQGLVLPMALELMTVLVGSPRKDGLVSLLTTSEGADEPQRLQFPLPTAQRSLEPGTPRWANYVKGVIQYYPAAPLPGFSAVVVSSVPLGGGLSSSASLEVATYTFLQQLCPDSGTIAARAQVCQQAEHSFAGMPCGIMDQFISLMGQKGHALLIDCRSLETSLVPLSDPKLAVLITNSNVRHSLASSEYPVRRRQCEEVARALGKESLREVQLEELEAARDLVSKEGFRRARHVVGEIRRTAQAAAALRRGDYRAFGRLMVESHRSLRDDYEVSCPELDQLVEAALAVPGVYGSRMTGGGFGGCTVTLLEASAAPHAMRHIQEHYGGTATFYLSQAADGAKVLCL
inhibitory activity against GALK (in words) [2],SMILES,other results
–,N#CC1=C(SCc2ccccc2)SC(c2ccc(O)c(O)c2)NC1=O (stereo not shown) [compound 2],toxicity in patient cells ([1]; concentration not given): toxicity
–,CC(=O)Oc1ccc(C2NC(=O)C(C#N)=C(SCc3ccccc3)S2)cc1OC(C)=O (stereo not shown) [compound 13],cell toxicity ([1]; 50μM or higher concentrations): total cell lethality within hours
–,N#CC1=C(SCc2ccccc2)SC(c2ccccc2O)NC1=O (stereo not shown) [compound 1],IC50 [2]: 1400 ± 700 nM
–,N#CC1=C(SCc2cccc(N3CCOCC3)c2)SC(c2ccc(O)cc2)NC1=O (stereo not shown) [compound 29],cell tolerance / lethality ([1]; 50μM): well-tolerated; cell lethality ([1]; 100μM or higher): lethal to cells; inhibition of GALK / lowering of gal-1P in cells (in words) [3]: neither 27 nor 29 was able to inhibit GALK or lowered gal-1P
possess inhibitory activities,N#CC1=C(SCc2ccccc2)SC(c2ccc(C(=O)O)cc2)NC1=O (stereo not shown) [compound 4],–
–,N#CC1=C(SCc2cccc(N3CCOCC3)c2)SC(c2cc(O)ccc2O)NC1=O (stereo not shown) [compound 27],cell tolerance ([1]; up to 100μM): well tolerated; inhibition of GALK / lowering of gal-1P in cells (in words) [3]: neither 27 nor 29 was able to inhibit GALK or lowered gal-1P
possess inhibitory activities,CSC1=C(C#N)C(=O)NC(c2ccccc2O)S1 (stereo not shown) [compound 3],–
did not display any inhibitory activity,CC1NC(=O)C(C#N)=C(SCc2ccccc2)S1 (stereo not shown) [compound 5],–
did not display any inhibitory activity,CC1(C)NC(=O)C(C#N)=C(SCc2ccccc2)S1 [compound 6],–
exhibited no activity,N#CC1=C(SCc2ccc(O)cc2)SC2(CCC(C(=O)O)CC2)NC1=O (stereo not shown) [compound 9],–
inactive,CSC1=C(C#N)C(=O)NC(c2ccc(Cl)cc2Cl)S1 (stereo not shown) [compound 10],–
did not display any inhibitory activity,N#CC1=C(SCc2ccccc2)SCNC1=O [compound 8],–

SMILES,inhibitory activity against GALK (in words) [2],other results
CCCCSC1=C(C#N)C(=O)NC(c2ccccc2O)S1 (stereo not shown) [compound 7],not all the compounds with hydroxyl groups on the A ring displayed inhibitory activity,–
